As usually defined, the ED50 is the dose that gives a 50% effect, or the effect in half of the subjects.

Structures are written as SMILES. Counter-ions that a name gives are not always drawn. Like-named read-outs stand apart in the source and are kept apart here.

The test system of one series is guinea pig. The series can be described thus: Anti asthmatic activity: protection from histamine-induced asthmatic dyspnea, subcutaneous (Parker et al.). The class given is in vivo. The following applies: Cavia porcellus, sc, 0.5 h, read-out: anti-asthmatic activity ED50.
The target in another series is T1, β2 (Canis lupus familiaris, UniProt P54833).
T1 construct: from tissue; host or cells: airways of anesthetized mongrel dogs, in vivo
Put plainly: Bronchodilator activity, β2 action: histamine-induced increase in bronchial resistance, intraduodenal (Konzett and Rossler). The class given is in vivo, Mongorel dogs. The following applies: dog, anesthetized dogs, histamine dihydrochloride 10 μg/Kg i.v., peak effect, read-out: β2 action i.d. ED50. As to the method: a. Bronchodilator activity, B2 action
The experiments were carried out according to the method of Konzett and Rossler (Arch. exp. Path. Pharmakol., 195, 11-14 (1940)). Mongorel dogs were anesthetized with pentobarbital Na. Temporary increase in bronchial resistance, measured with transducer connected to a polygraph, were produced by histamine dihydrochloride, 10 μg/Kg injected rapidly intravenously at intervals of 30 min. The test samples were injected intraduodenally and the time-course of antihistamine activity of the sample (the inhibition rate (%) against the control) was obtained.
ED50 (μg/Kg) values of β-agonists were obtained from the dose response curve drawn according to the peak effect on each dose.

For a further series, the system named is β1. The series can be described thus: Action on heart rate, β1 action, intraduodenal. The series is classed as in vivo, Mongorel dogs. As to the method: b. Action on heartrate, β1 action.
Mongorel dogs were anesthetized with pentobarbital Na. Heart rate (HR) was recorded on polygraph. […] The time-course of ΔHR (the increased HR against the control) was obtained.
The dose response curve drawn according to the peak response on each dose and the ED25 beats/min. (μg/Kg), that is the dose of the sample producing 25 beats/min. increase in heart rate was obtained from the curve.

In another series the test system is β1 /β2. The series can be described thus: Broncho-selectivity (ratio of β1/β2). The series is classed as in vivo, Mongorel dogs. Particulars: intraduodenal, anesthetized dogs; from ED25 heart rate and ED50 bronchodilator. An excerpt:
The broncho-selectivity was obtained by the following equation. [formula]

The conditions of series [1]: cited from earlier work.
[2] abbreviates: subcutaneous, 30 min. prior to spasmogen (0.1% histamine dihydrochloride spray), guinea pig.

T1 sequence (P54833 whole entry): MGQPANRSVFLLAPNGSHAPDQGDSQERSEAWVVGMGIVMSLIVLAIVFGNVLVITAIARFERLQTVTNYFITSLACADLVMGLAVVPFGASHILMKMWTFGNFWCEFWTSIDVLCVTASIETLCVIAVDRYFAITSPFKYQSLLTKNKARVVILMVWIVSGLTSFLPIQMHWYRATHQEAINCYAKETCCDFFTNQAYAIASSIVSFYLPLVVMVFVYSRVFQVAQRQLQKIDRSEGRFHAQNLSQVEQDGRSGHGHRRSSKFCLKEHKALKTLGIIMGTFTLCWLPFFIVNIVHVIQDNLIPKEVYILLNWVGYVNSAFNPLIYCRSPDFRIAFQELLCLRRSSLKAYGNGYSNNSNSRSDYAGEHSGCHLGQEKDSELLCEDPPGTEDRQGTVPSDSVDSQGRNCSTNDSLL
Experimental for guinea pig: The experiments were carried out according to the method of Parker et al., (J. Pharmacol. Exptl. Therap., 118, 359-364 (1956)). A guinea pig was placed in a 11 liters glass chamber and exposed to the spasmogen by means of a nebulizer. […] Samples were administered subcutaneously to animals 30 min. prior the application of the spasmogen.
ED50 was calculated by the method of Litchfield-Wilcoxon (J. Pharmacol. Exptl. Therap., 96, 99-113 (1949) using 4-8 groups and one group consists of 4-8 of guinea pig.

For `CCNc1c(Cl)cc(C(O)CNC(C)(C)C)cc1Cl.Cl` (stereo not drawn) [Ex. 6, 3,5-dichloro-4-ethylamino-α-(tert-butylaminomethyl)-benzyl alcohol mono-hydrochloride], the ED50 in the series with guinea pig lay within 0.125 to 0.25 mg/kg.

For the compound `COC(=O)Nc1c(Br)cc(C(O)CNC(C)(C)C)cc1Br` (stereo not drawn) [Ex. 8, 3,5-dibromo-4-methoxycarbonylamino-α-(tert-butylaminomethyl)benzyl alcohol], the ED50 with guinea pig (setting [2]) worked out at 0.125 mg/kg.

For `CCOC(=O)Nc1c(Cl)cc(C(O)CNC(C)(C)C)cc1Cl.Cl` (stereo not drawn) [Ex. 10, 3,5-dichloro-4-ethoxycarbonylamino-α-(tert-butylaminomethyl)-benzyl alcohol hydrochloride], the ED50 at β2 amounted to 0.0045 mg/kg. Also, the “β1 action i.d. ED25 beats/min” value in the series on β1 (dog, in vivo) is 0.0195 mg/kg. For the same compound, the “broncho-selectivity (Ratio of β1 /β2)” value with β1 /β2 is 4.3.

Regarding `CC(C)OC(=O)Nc1c(Cl)cc(C(O)CNC(C)(C)C)cc1Cl` (stereo not drawn) [Ex. 12, 3,5-dichloro-4-isopropoxycarbonylamino-α-(tert-butylaminomethyl)benzyl alcohol], the median effective dose (ED50) with guinea pig (setting [2]) turned out to be 0.032 mg/kg.

As for `CC(C)(C)NCC(O)c1cc(Cl)c(NC(=O)OCc2ccccc2)c(Cl)c1.Cl` (stereo not drawn) [Ex. 13, 3,5-dichloro-4-benzyloxycarbonylamino-α-(tert-butylaminomethyl)benzyl alcohol hydrochloride], the ED50 in the series with guinea pig (setting [2]) came to 0.125 mg/kg.

Take `COCCOC(=O)Nc1c(Cl)cc(C(O)CNC(C)(C)C)cc1Cl` (stereo not drawn) [Ex. 14, 3,5-dichloro-4-(2-methoxyethoxy)carbonylamino-α-(tert-butylaminomethyl)benzyl alcohol hydrochloride]: the 50% effective dose (ED50) with guinea pig (setting [2]) was 0.032 mg/kg.

Regarding `CNC(=O)Nc1c(Cl)cc(C(O)CNC(C)(C)C)cc1Cl` (stereo not drawn) [Ex. 15, 3,5-dichloro-4-methylcarbamoylamino-α-(tert-butylaminomethyl)benzyl alcohol], the ED50 with guinea pig (setting [2]) was 0.125 to 0.25 mg/kg.

As to `COC(=O)Nc1c(Cl)cc(C(O)CNC(C)(C)C)cc1Br` (stereo not drawn) [Ex. 18, 3-bromo-5-chloro-4-methoxycarbonylamino-α-(tert-butylaminomethyl)-benzyl alcohol 1/2 fumarate], in the series with guinea pig (setting [2]), the ED50 was determined as 0.063 mg/kg.

Regarding `COC(=O)Nc1ccc(C(O)CNC(C)(C)C)cc1Cl` (stereo not drawn) [Ex. 23, 3-chloro-4-methoxycarbonylamino-α-(N-tert-butylaminomethyl)benzyl alcohol], the ED50 in the series with guinea pig (setting [2]) lay in the range of 0.063 to 0.125 mg/kg.

Consider `CC(C)(C)NCC(O)c1cc(Cl)c(N)c(Cl)c1` (stereo not drawn) [NAB 365, 1-(4-amino-3,5-dichlorophenyl)-2-tert-butylamino ethanol, reference compound], for which the ED50 stood at 0.49 mg/kg in the series on guinea pig and 0.0123 mg/kg at β2. Besides, the “β1 action i.d. ED25 beats/min” value with β1 (intraduodenal, anesthetized dogs, dose producing 25 beats/min. increase in heart rate) was found to be 0.0057 mg/kg. Besides, in the series on β1 /β2, the “broncho-selectivity (Ratio of β1 /β2)” value is 0.46. Also, the “bronchodilator activity by oral administration” value in series [1] (in words) is “strong bronchodilator activity”. Besides, the “bronchodilator activity, times stronger than Isoproterenol” value in series [1] (oral administration, versus Isoproterenol) was “about 500 times”. For the same compound, the “bronchodilator activity, times stronger than Salbutamol” value in series [1] (oral administration, versus Salbutamol) is reported as “about 100 times”.

The record behind these values is US4063025A, “4-Substituted amino-α-aminomethylbenzyl alcohol derivatives” (Yamanouchi Pharmaceutical Co., Ltd., priority 1975, dated 1977).
